# Measurements reported in patent US20120302636A1, “METHOD OF TREATING A DISORDER ASSOCIATED WITH MTP” (priority 2009, published 2012).
# Entries after “also recorded” stand apart in the source; their conditions may differ.
# Key:
# [1] = Example 3: pharmacokinetics; format: in vivo, human; conditions: all dose groups
# [2] = Example 8: pharmacokinetics (trough concentrations)
# From the text: This example involved a clinical study of the compound of formula (I), which was a randomized, double-blind, placebo-controlled, parallel group study to evaluate the efficacy of the compound of formula (I) administered twice daily for twelve weeks in obese subjects.
# [3] = Example 6: pharmacokinetics; format: in vivo, human; conditions: 5 to 20 mg QD and BID, healthy males; generally BLQ
# From the text: (§1) Originally, the study was planned as 4 sequential cohorts of healthy male Caucasian subjects (Cohorts 1 to 4) followed by a cohort of male Caucasian patients with elevated triglycerides (HTG patients, Cohort 5). An additional cohort of healthy male Caucasian subjects (Cohort 4.1) was enrolled into the study (6 cohorts in total). The cohorts were as follows: Cohorts 1 to 4.1 had healthy Caucasian males, aged 18-45 years with a body weight of 60-100 kg and body mass index (BMI) between 19-28 kg/m^2 at screening and fasting triglycerides less than 1.69 mmol/L (less than 150 mg/dL) at the screening visit and Day-3. Cohort 5 had Caucasian males, aged 18-50 years with a body weight of 60-115 kg and BMI less than 35 kg/m^2 at screening and with elevated fasting triglycerides (TG≧1.69 mmol/L and <5.62 mmol/L; ≧150 mg/dL and <500 mg/dL) at the screening visit and Day-3.
# (§2) The planned treatment for Cohorts 1 to 4 was twice daily administration of 5 mg, 10 mg or 15 mg the compound of formula (I)/placebo, or once daily administration of 30 mg the compound of formula (1)/placebo. […] As only the compound of formula (I) 5 mg capsules were supplied for this study, doses were administered once daily to determine the maximum tolerated dose, and the planned doses for each subsequent cohort were amended based on the safety and tolerability data obtained from the preceding cohort. The dose level and dosing schedule planned for the patients in Cohort 5 was determined by the maximum tolerated dose and dosing schedule as reported from the planned Cohorts 1 to 4.1.
# (§3) Twelve healthy male Caucasian subjects were enrolled in each of Cohorts 1 to 4.1; dose cohorts were randomized in a ratio 9:3 to receive the compound of formula (I) or placebo, respectively, at the dose level associated with that cohort. Twelve male Caucasian patients with elevated triglycerides were randomized in a ratio of 8:4 to receive the compound of formula (I) or placebo, respectively, at the maximum tolerated dose level and dosing schedule.
# [4] = Example 2: repeated oral dose study of tablets QD or BID, safety; format: in vivo, human
# Procedure: (§4) Each tablet contained 5 mg (BID), 10 mg (QD), 20 mg (QD), or 30 mg (QD).
# [5] = Earlier phase 1 single dose clinical study; format: in vivo, human
# [6] = Example 7: ascending dose study in obese subjects, pharmacokinetics
# Procedure: This example involved a clinical study of the compound of formula (I), which was a randomized, double-blind, placebo-controlled, ascending dose study to evaluate the safety, tolerability and pharmacokinetics/pharmacodynamics of the compound of formula (I) tablets administered twice daily for two weeks in obese subjects.
# The subjects were separated into four arms of nine (one with ten) test subjects (which were administered the compound of formula (I)) and three placebo subjects.
# serum lipid levels [7] = test: Example 6: serum lipid levels / pharmacodynamics; format: in vivo, human
# From the text: as §1, §2, §3
# [8] = Example 6: ascending dose study in healthy males and HTG patients, safety; format: in vivo
# From the text: as §1, §2, §3
# This study was conducted to investigate the safety and tolerability of the compound of formula (I) and to determine the pharmacokinetic and pharmacodynamic profiles of the compound of formula (I) administered, either once or twice a day, for 14 days to healthy non-fasting male Caucasian subjects and male Caucasian HTG patients. The planned treatment for Cohorts 1 to 4 was twice daily administration of 5 mg, 10 mg or 15 mg the compound of formula (I)/placebo, or once daily administration of 30 mg the compound of formula (I)/placebo. […] Consequently, doses were administered once daily to healthy volunteers, and the planned doses for each subsequent cohort were amended based on the safety and tolerability data obtained from the preceding cohort.
# serum lipid levels [9] = test: Example 7: serum lipid levels; format: in vivo, human
# Procedure: Postprandial levels of lipid parameters after administration of the compound of formula (I) were evaluated using the change from preceding timepoint. […] Intraday changes and changes from pretreatment baseline also indicate that the absorption of TG, VLDL-TG, and chylomicron-TG were delayed compared to placebo. This delayed absorption is consistent with a previous pharmacology study in healthy male Japanese subjects. The postprandial results were interpreted with caution as the delay in absorption can impact the calculation regarding the magnitude of the postprandial change in triglycerides. However, the suppression of the expected increases in postprandial TG, VLDL-TG, and chylomicron-TG, which is indicative of MTP inhibition, clearly supports the mechanism of action of the compound of formula (I). The VLDL-TG changes observed in this study are consistent with previous studies (Examples 2 and 6) where the compound of formula (I) was administered for up to 14 days in healthy or hypertriglyceridemic Caucasian and Japanese male subjects. In general, the compound of formula (I) levels were also low or non-quantifiable in these studies. […] Therefore, the compound of formula (I) is not believed to directly affect the liver.
# serum lipid levels [10] = test: Example 2: serum lipid levels; format: in vivo, human
# Procedure: as §4
smiles,measurement,setting,value
"CCOC(=O)C(COC(=O)Cc1ccc(NC(=O)c2ccccc2-c2ccc(C(F)(F)F)cc2)c(C(=O)N(C)C)c1)(C(=O)OCC)c1ccccc1 [compound of formula (I), diethyl 2-((2-(3-(dimethylcarbamoyl)-4-(4′-(trifiuoromethyl)biphenyl-2-ylcarboxamido)phenyl)acetoxy)methyl)-2-phenyl malonate]",plasma concentrations of the compound of formula (I),[1],below the limit of quantization
same,trough concentrations of the compound of formula (I),[2]; 1 mg BID,not quantifiable
same,trough concentrations of the compound of formula (I),[2]; 2.5 and 3.5 mg BID,quantifiable in a few subjects
same,plasma concentrations of the compound of formula (I),[3],< 3 ng/mL
same,incidence of diarrhea,[4]; 5 mg BID,100%
same,incidence of moderate diarrhea,[4]; 5 mg BID,66.7%
same,incidence of vomiting (moderate),[4]; 5 mg BID,16.7%
same,number of diarrhea events,[4]; 5 mg BID,7
same,subjects with adverse events (incidence),[4]; 5 mg BID,100.0%
same,suitability as clinical dose for hyperlipidemic patients,[4]; 5 mg BID,inappropriate as a clinical dose
same,subjects with adverse events (incidence),[4]; 10 mg QD,50.0%
same,incidence of diarrhea,[4]; 20 mg QD,16.7%
same,incidence of moderate diarrhea,[4]; 20 mg QD,16.7%
same,number of diarrhea events,[4]; 20 mg QD,One
same,subjects with adverse events (incidence),[4]; 20 mg QD,66.7%
same,incidence of diarrhea,[4]; 30 mg QD,66.7%
same,incidence of moderate diarrhea,[4]; 30 mg QD,50.0%
same,number of diarrhea events,[4]; 30 mg QD,4
same,subjects with adverse events (incidence),[4]; 30 mg QD,66.7%
same,vitamin E levels,[4]; 30 mg QD,decreased on Day 7
same,subjects with queasiness,[4]; 30 mg dose,2 of 6 subjects
same,incidence of infection and infestation (SOC),[4]; active group,4.2%
same,incidence of investigation (SOC),[4]; active group,20.8%
same,incidence of metabolism and nutrition disorder (SOC),[4]; active group,4.2%
same,incidence of gastrointestinal disorder (SOC),"[4]; active group, 24 subjects",58.3%
same,incidence of CK increased,[4]; overall compound group,12.5%
same,incidence of abdomen enlarged feeling,[4]; overall compound group,20.8%
same,incidence of diarrhea,[4]; overall compound group,45.8%
same,incidence of loose stools,[4]; overall compound group,20.8%
same,incidence of stomach discomfort,[4]; overall compound group,25.0%
same,number of diarrhea events,[4]; overall compound group,Twelve
same,subjects with adverse events (incidence),"[4]; overall compound group, 24 subjects",70.8%
same,fat-soluble vitamin levels,"[4]; remaining groups (10 mg QD, 20 mg QD, 5 mg BID)",did not decrease
same,death or serious adverse events,"[4]; tablets, 14 days",No death or other serious adverse events occurred
same,doses at which diarrhea was observed,[5],≥ 60 mg
same,plasma concentrations of the compound of formula (I),"[6]; 1 mg, Day 14",not quantifiable
same,time up to which concentrations were quantifiable,"[6]; 2.5 mg and 3.5 mg groups, Day 14",up to 5 hr
same,subjects with quantifiable concentrations,"[6]; 2.5 mg, Day 14",2 of 8 subjects
same,subjects with quantifiable concentrations,"[6]; 3.5 mg, Day 14",7 of 8 subjects
same,subjects with quantifiable concentrations,"[6]; 5 mg, Day 14",2 of 3 subjects
same,time for which concentrations were quantifiable,"[6]; 5 mg, Day 14",at least 6 hr
same,plasma concentrations of the compound of formula (I),"[6]; 1 to 5 mg, Day 1",generally below the limit of quantization
same,Cmax and AUC0-τ dose proportionality,[6]; 2.5 to 5 mg,approximately dose proportional
same,systemic exposure,[6]; BID for 14 days,negligible
same,parent/metabolite ratio for AUC0-τ,[6]; all dose levels,less than 0.01
same,parent/metabolite ratio for Cmax,[6]; all dose levels,less than 0.03
same,oral clearance,[6]; quantifiable dose groups,high oral clearance
same,"effects on LDL-C, HDL-C, VLDL-C, and VLDL-TG vs QD regimens",serum lipid levels [7]; 5 mg BID,more marked effects
same,expected postprandial increase of TG and chylomicron-TG,serum lipid levels [7]; healthy subjects and patients with high TG,suppressed
same,campesterol (marker of cholesterol absorption),serum lipid levels [7]; in vivo,affects campesterol
same,lathosterol (marker of cholesterol synthesis by the liver),serum lipid levels [7]; in vivo,not lathosterol
same,"impact on triglyceride-rich lipoproteins (ApoCII, ApoCIII, VLDL-TG, VLDL-C)",serum lipid levels [7]; once-daily regimen,no discernible impact
same,subjects withdrawn due to adverse events,"[8]; 5 mg BID, Cohort 1",5 subjects
same,tolerability,"[8]; 5 mg BID, HTG patients, Cohort 5",reasonably well tolerated
same,tolerability,"[8]; 5 mg BID, healthy subjects, Cohort 1",poorly tolerated; also recorded: not well tolerated
same,subjects reporting treatment-emergent adverse events,"[8]; HTG patients receiving compound, Cohort 5",88 % of treatment group
same,"safety analyses (liver MRIs, tryptase, fat soluble vitamins, fecal fat)",[8]; any cohort,no clinically relevant findings
same,subjects reporting treatment-emergent adverse events,[8]; healthy subjects receiving compound,76 % of treatment group
same,tolerability,"[8]; healthy subjects, Cohorts 2 (5 mg QD), 3 (10 mg QD), 4 (15 mg QD), 4.1 (20 mg QD)",reasonably well-tolerated
same,fatty liver (liver MRI),"[8]; human, in vivo",without the presence of fatty liver
same,renal function tests,"[8]; human, in vivo",did not suggest drug-related nephrotoxicity or hyperglycaemia
same,"postprandial estimates for TG, VLDL-TG, and chylomicron-TG",serum lipid levels [9]; following breakfast and dinner,substantially lower when compared with placebo
same,decrease in HDL-C levels,serum lipid levels [9]; in vivo,"not as pronounced as LDL-C, nor was it statistically significant"
same,"pretreatment baseline adjusted values of TC, LDL-C, LDL-TG, ApoB, and phospholipids",serum lipid levels [9]; in vivo,significant reduction
same,"postprandial elevations for TG, HDL-TG, LDL-TG, Midband-TG, VLDL-TG, CM-TG, and ApoB48",serum lipid levels [10]; active group,suppressed
same,"TC, HDL-C, LDL-C, and ApoB values",serum lipid levels [10]; by and after Day 7,decreased
